Measurements taken from ChEMBL document CHEMBL1201862, “PubChem BioAssay data set” (2004).
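Following 48 hours of exposure in 96-well plates, responses at five concentrations were used to interpolate endpoints linearly. GI50 marks 50% less growth.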 Calls of active or inactive are those of the source. No stated cut-off is given here; in the data, active = GI50 up to about 1.1 µM and inactive = higher.

What was measured:
Assay in all cases: inhibition of tumour cell growth, NCI panel, 48 h
SK-MEL-5 = test system: SK-MEL-5
SN12C = test system: SN12C
UACC-257 = test system: UACC-257
SK-OV-3 = test system: SK-OV-3
A498 = test system: A498
NCI-H226 = test system: NCI-H226
HOP-18 = test system: HOP-18
NCI-H460 = test system: NCI-H460
A549 = test system: A549
SF-539 = test system: SF-539
HOP-62 = test system: HOP-62
DMS-273 = test system: DMS-273
DLD-1 = test system: DLD-1
SNB-75 = test system: SNB-75
RXF 393 = test system: RXF 393
SNB-78 = test system: SNB-78
LXFL 529 = test system: LXFL 529
MOLT-4 = test system: MOLT-4
HCT-116 = test system: HCT-116
HCT-15 = test system: HCT-15
HCC 2998 = test system: HCC 2998
UACC-62 = test system: UACC-62
NCI-H522 = test system: NCI-H522
HOP-92 = test system: HOP-92
U-251 = test system: U-251
SF-295 = test system: SF-295
KM12 = test system: KM12
SK-MEL-28 = test system: SK-MEL-28
CAKI-1 = test system: CAKI-1
786-0 = test system: 786-0
Malme-3M = test system: Malme-3M
SW-620 = test system: SW-620
UO-31 = test system: UO-31
SR = test system: SR
HT-29 = test system: HT-29
IGROV-1 = test system: IGROV-1
COLO 205 = test system: COLO 205
OVCAR-8 = test system: OVCAR-8
OVCAR-5 = test system: OVCAR-5
SK-MEL-2 = test system: SK-MEL-2
CCRF-CEM = test system: CCRF-CEM
OVCAR-3 = test system: OVCAR-3
OVCAR-4 = test system: OVCAR-4
TK-10 = test system: TK-10
LOX IMVI = test system: LOX IMVI
M14 = test system: M14
DMS-114 = test system: DMS-114
NCI-H23 = test system: NCI-H23
K562 = test system: K562
HL-60 = test system: HL-60
XF498 = test system: XF498
EKVX = test system: EKVX
ACHN = test system: ACHN
SF-268 = test system: SF-268
KM-20L2 = test system: KM-20L2
M19-MEL = test system: M19-MEL
RPMI-8226 = test system: RPMI-8226
SNB-19 = test system: SNB-19

`CN(C)CCSc1nccc(-c2cc3ccccc3s2)n1` was tested, and the GI50 (SK-MEL-5) was 14.3 µM (inactive), the GI50 (SN12C) was 30.4 µM (inactive) and the GI50 (UACC-257) was > 10 µM (inactive). For the same molecule, the GI50 (SK-OV-3) was 37.3 µM (inactive), the GI50 (A498) was 20.1 µM (inactive) and the GI50 (NCI-H226) was 14.9 µM (inactive). The GI50 (HOP-18) was < 0.01 µM (active), the GI50 (NCI-H460) was 13.8 µM (inactive) and the GI50 (A549) was 17.6 µM (inactive). For the same molecule, the GI50 (SF-539) was 18.2 µM (inactive), the GI50 (HOP-62) was 23.8 µM (inactive) and the GI50 (DMS-273) was 15.9 µM (inactive). For the same molecule, the GI50 (DLD-1) was 32.6 µM (inactive), the GI50 (SNB-75) was 54 µM (inactive) and the GI50 (RXF 393) was 18.5 µM (inactive). The GI50 (SNB-78) was 16.3 µM (inactive), the GI50 (LXFL 529) was 16.8 µM (inactive) and the GI50 (MOLT-4) was 26.2 µM (inactive). The GI50 (HCT-116) was 24.4 µM (inactive), the GI50 (HCT-15) was 18.6 µM and the GI50 (HCC 2998) was 15.7 µM (inactive). The GI50 (UACC-62) was 20.4 µM (inactive), the GI50 (NCI-H522) was 20.1 µM (inactive) and the GI50 (HOP-92) was 2.87 µM (inactive). For the same molecule, the GI50 (U-251) was 20.2 µM (inactive), the GI50 (SF-295) was 16.2 µM (inactive) and the GI50 (KM12) was 19.3 µM (inactive). For the same molecule, the GI50 (SK-MEL-28) was 20 µM (inactive), the GI50 (CAKI-1) was 25.8 µM (inactive) and the GI50 (786-0) was 24.2 µM (inactive). The GI50 (Malme-3M) was 19.5 µM (inactive), the GI50 (SW-620) was 19 µM (inactive) and the GI50 (UO-31) was 19.1 µM (inactive). The GI50 (SR) was 19.2 µM (inactive), the GI50 (HT-29) was 9.06 µM (inactive) and the GI50 (IGROV-1) was 42.3 µM (inactive). For the same molecule, the GI50 (COLO 205) was 17.2 µM (inactive), the GI50 (OVCAR-8) was 22.3 µM (inactive) and the GI50 (OVCAR-5) was 27.2 µM (inactive). For the same molecule, the GI50 (SK-MEL-2) was 17.3 µM (inactive), the GI50 (CCRF-CEM) was 20 µM (inactive) and the GI50 (OVCAR-3) was 44.5 µM (inactive). For the same molecule, the GI50 (OVCAR-4) was 38.5 µM (inactive), the GI50 (TK-10) was > 10 µM (inactive) and the GI50 (LOX IMVI) was 17.1 µM (inactive). The GI50 (M14) was 15.6 µM (inactive), the GI50 (DMS-114) was 23.2 µM (inactive) and the GI50 (NCI-H23) was > 10 µM (inactive).
For `CSc1nc(-c2ccc(Cl)cc2)c(C#N)c(=O)n1C1OC(COC(C)=O)C(OC(C)=O)C(OC(C)=O)C1OC(C)=O` (stereo not drawn), the GI50 (SK-MEL-5) was > 100 µM (inactive), the GI50 (SN12C) was > 100 µM (inactive) and the GI50 (NCI-H226) was 33 µM (inactive). For the same molecule, the GI50 (HOP-18) was 29.9 µM (inactive), the GI50 (A549) was > 100 µM (inactive) and the GI50 (K562) was > 100 µM (inactive). For the same molecule, the GI50 (DMS-273) was > 100 µM (inactive), the GI50 (DLD-1) was > 100 µM (inactive) and the GI50 (MOLT-4) was > 75 µM (inactive). For the same molecule, the GI50 (HCT-15) was > 100 µM, the GI50 (HCC 2998) was > 100 µM (inactive) and the GI50 (HL-60) was > 100 µM (inactive). The GI50 (KM12) was > 100 µM (inactive), the GI50 (CAKI-1) was > 100 µM (inactive) and the GI50 (786-0) was > 100 µM (inactive). For the same molecule, the GI50 (SW-620) was > 100 µM (inactive), the GI50 (SR) was > 100 µM (inactive) and the GI50 (IGROV-1) was 57.1 µM (inactive). The GI50 (COLO 205) was > 100 µM (inactive), the GI50 (OVCAR-8) was > 100 µM (inactive) and the GI50 (XF498) was > 100 µM (inactive). The GI50 (SK-MEL-2) was 53.8 µM (inactive), the GI50 (EKVX) was > 100 µM (inactive) and the GI50 (OVCAR-3) was 12.6 µM (inactive). For the same molecule, the GI50 (TK-10) was > 100 µM (inactive).
With `CC1=NN(C(=O)c2ccncc2)C(=O)C1/N=N/c1ccc(F)cc1` (stereo not drawn) the GI50 (SK-MEL-5) was > 100 µM (inactive), the GI50 (SN12C) was > 100 µM (inactive) and the GI50 (UACC-257) was > 100 µM (inactive). The GI50 (SK-OV-3) was > 100 µM (inactive), the GI50 (A498) was 60.5 µM (inactive) and the GI50 (NCI-H226) was 81.1 µM (inactive). The GI50 (NCI-H460) was > 100 µM (inactive), the GI50 (A549) was > 100 µM (inactive) and the GI50 (SF-539) was 59.2 µM (inactive). The GI50 (K562) was > 100 µM (inactive), the GI50 (DMS-273) was 92.5 µM (inactive) and the GI50 (DLD-1) was > 100 µM (inactive). For the same molecule, the GI50 (SNB-75) was 21.5 µM (inactive), the GI50 (RXF 393) was 58.1 µM (inactive) and the GI50 (SNB-78) was 63.1 µM (inactive). The GI50 (LXFL 529) was > 100 µM (inactive), the GI50 (ACHN) was > 100 µM (inactive) and the GI50 (HCT-116) was 96.8 µM (inactive). For the same molecule, the GI50 (HCT-15) was > 100 µM, the GI50 (UACC-62) was > 100 µM (inactive) and the GI50 (NCI-H522) was > 100 µM (inactive). The GI50 (HL-60) was > 100 µM (inactive), the GI50 (HOP-92) was 51.6 µM (inactive) and the GI50 (SF-295) was > 100 µM (inactive). For the same molecule, the GI50 (SK-MEL-28) was > 100 µM (inactive), the GI50 (CAKI-1) was > 100 µM (inactive) and the GI50 (786-0) was > 100 µM (inactive). The GI50 (Malme-3M) was > 100 µM (inactive), the GI50 (SW-620) was > 100 µM (inactive) and the GI50 (UO-31) was 45.3 µM (inactive). The GI50 (HT-29) was > 100 µM (inactive), the GI50 (IGROV-1) was > 100 µM (inactive) and the GI50 (COLO 205) was > 100 µM (inactive). For the same molecule, the GI50 (OVCAR-8) was > 100 µM (inactive), the GI50 (SF-268) was > 100 µM (inactive) and the GI50 (KM-20L2) was > 100 µM (inactive). The GI50 (OVCAR-5) was > 100 µM (inactive), the GI50 (XF498) was > 100 µM (inactive) and the GI50 (SK-MEL-2) was > 100 µM (inactive). For the same molecule, the GI50 (M19-MEL) was > 100 µM (inactive), the GI50 (EKVX) was 20 µM (inactive) and the GI50 (RPMI-8226) was > 100 µM (inactive). The GI50 (OVCAR-3) was > 100 µM (inactive), the GI50 (OVCAR-4) was > 100 µM (inactive) and the GI50 (TK-10) was > 100 µM (inactive). The GI50 (SNB-19) was > 100 µM (inactive), the GI50 (LOX IMVI) was > 100 µM (inactive) and the GI50 (M14) was > 100 µM (inactive). For the same molecule, the GI50 (DMS-114) was > 100 µM (inactive) and the GI50 (NCI-H23) was > 100 µM (inactive).
